Results on one compound are retold here after patent US9890407B2, “Method for synthesizing cellulose in vitro” (University of Virginia Patent Foundation, priority 2013, dated 2018).

Molecules are shown by their SMILES.

The target in experiment [1] is T1, Rhodobacter sphaeroides BcsA-B complex (cellulose synthase), wild type, BcsA SEQ ID NO: 1, BcsB SEQ ID NO: 3 (Cereibacter sphaeroides, UniProt Q3J125).
T1 construct: pETDuet, E. coli C43; purified, reconstituted in nanodiscs, proteoliposomes or detergent
T1 sequence (Q3J125 1-788): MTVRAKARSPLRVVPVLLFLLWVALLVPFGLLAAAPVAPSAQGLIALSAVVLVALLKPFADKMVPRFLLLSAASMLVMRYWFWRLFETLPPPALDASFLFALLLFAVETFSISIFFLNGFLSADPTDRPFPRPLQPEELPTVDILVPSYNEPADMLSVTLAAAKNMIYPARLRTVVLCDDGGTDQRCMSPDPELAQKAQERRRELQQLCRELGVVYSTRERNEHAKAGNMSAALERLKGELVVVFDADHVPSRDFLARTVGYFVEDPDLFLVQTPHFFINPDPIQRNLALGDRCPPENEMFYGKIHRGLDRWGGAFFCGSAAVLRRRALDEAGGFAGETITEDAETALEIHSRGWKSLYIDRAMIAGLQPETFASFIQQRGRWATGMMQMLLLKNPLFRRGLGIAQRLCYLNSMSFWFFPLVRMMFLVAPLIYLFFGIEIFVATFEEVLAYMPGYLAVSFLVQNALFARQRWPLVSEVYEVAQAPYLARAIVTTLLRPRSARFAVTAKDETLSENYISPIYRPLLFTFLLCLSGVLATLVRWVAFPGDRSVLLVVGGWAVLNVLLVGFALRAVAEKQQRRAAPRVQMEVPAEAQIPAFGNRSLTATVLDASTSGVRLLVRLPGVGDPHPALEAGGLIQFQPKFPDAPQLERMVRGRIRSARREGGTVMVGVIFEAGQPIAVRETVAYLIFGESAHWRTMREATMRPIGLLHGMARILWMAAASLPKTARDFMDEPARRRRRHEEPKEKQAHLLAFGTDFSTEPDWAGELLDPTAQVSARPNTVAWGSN
T1 sequence (Q3J126 21-725 partner): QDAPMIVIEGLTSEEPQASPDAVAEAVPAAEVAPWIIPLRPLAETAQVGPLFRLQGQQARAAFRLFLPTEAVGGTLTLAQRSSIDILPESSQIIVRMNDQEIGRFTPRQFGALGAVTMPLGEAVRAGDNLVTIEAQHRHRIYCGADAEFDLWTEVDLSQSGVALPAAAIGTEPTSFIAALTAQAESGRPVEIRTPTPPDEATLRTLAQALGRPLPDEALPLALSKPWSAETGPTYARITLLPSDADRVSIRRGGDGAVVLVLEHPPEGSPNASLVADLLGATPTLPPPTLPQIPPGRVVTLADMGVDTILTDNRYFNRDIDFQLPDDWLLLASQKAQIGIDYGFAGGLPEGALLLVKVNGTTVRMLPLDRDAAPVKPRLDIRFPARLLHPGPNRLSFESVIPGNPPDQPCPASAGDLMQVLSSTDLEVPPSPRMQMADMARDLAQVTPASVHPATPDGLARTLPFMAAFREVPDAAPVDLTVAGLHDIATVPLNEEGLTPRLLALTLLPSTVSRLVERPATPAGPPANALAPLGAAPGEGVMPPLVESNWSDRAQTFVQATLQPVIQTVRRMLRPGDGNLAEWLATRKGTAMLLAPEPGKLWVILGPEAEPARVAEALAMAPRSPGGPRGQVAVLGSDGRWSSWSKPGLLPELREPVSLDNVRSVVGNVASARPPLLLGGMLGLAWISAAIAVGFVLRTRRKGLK
Nature of the experiment: Enzyme-coupled (PK/LDH, NADH oxidation) cellulose synthase assay, ND-reconstituted BcsA-B. Format: biochemical. The conditions noted are these: titration of UDP-Glc at increasing c-di-GMP concentrations.

Experiment [2] addresses T2, Rhodobacter sphaeroides BcsA-B complex, wild type (WT), BcsA SEQ ID NO: 1, BcsB SEQ ID NO: 3 (Cereibacter sphaeroides, UniProt Q3J125).
T2 construct: E. coli; purified in LFCE14 detergent for ITC
T2 sequence (Q3J125 1-788): T1 sequence (Q3J125 1-788)
T2 sequence (Q3J126 21-725 partner): T1 sequence (Q3J126 21-725 partner)
Nature of the experiment: Isothermal titration calorimetry, c-di-GMP binding to wild type BcsA-B. The conditions noted are these: ITC, 1 mM LFCE14, 25° C. The method, then: (§1) FIG. 23A-23B (also referred to as Example 2, Supplementary FIG. 5): Cellulose synthesis activity of BcsA mutants and c-di-GMP binding. (FIG. 23A) Cellulose synthesis assays were performed in inverted membrane vesicles and proteoliposomes as described in the Experimental Procedures. The amount of ^3H-glucose-labeled cellulose produced by each mutant is quantified and graphed. 1 μl of IMV's were used for each mutant. For PL assays, the protein concentrations were matched based on UV absorbance and SDS-PAGE followed by Coomassie staining. The apparent lower activity of the R580A mutant may be due to differences in the relative orientation of the enzyme in the PLs or its overall stability. +/−: Experiments performed in the presence and absence of 30 μM c-di-GMP. All data represent the means±SD for 3 technical replicates. (FIG. 23B) Binding of c-di-GMP to the BcsA-R580A mutant. The ability of the R580A mutant to bind c-di-GMP was assessed using ITC.
(§2) The protein was purified in 1 mM LFCE14 as described above. Measurements were carried out at 25° C. in a MicroCal iTC200 system (GE Healthcare) with 250 μl of BcsA-B in the cell at 9.3 μM for WT and 11 μM for the BcsA-Arg580Ala complex and 400 μM c-di-GMP in the syringe. An initial 0.5 μl injection was followed by 39 1 μl injections spaced 180 s apart with stirring at 700 rpm. The data were fit using Origin 7.0 as provided by the manufacturer.
(Isothermal titration calorimetry measures the heat released or taken up as one component is titrated into another.)

In another experiment the target is BcsA-Arg580Ala complex. The experiment in a line: Isothermal titration calorimetry, c-di-GMP into BcsA-R580A complex. The settings on record: BcsA-R580A in 1 mM LFCE14, 25° C.; read-out: Kd of c-di-GMP (ITC). In kind it is binding, Rhodobacter sphaeroides. The method, then:
as §1, §2

Experiment [3] has as its target T3, Rhodobacter sphaeroides BcsA-B complex, BcsA variant R580A (Arg580Ala; parent BcsA SEQ ID NO: 1), BcsB SEQ ID NO: 3 (Cereibacter sphaeroides, UniProt Q3J125, R580A). Nature of the experiment: Isothermal titration calorimetry, c-di-GMP binding to the BcsA-R580A mutant. How it is done: as §1, §2
The target of experiment [4] is T3, Rhodobacter sphaeroides BcsA-B complex, BcsA variant R580A (Arg580Ala; parent BcsA SEQ ID NO: 1), BcsB SEQ ID NO: 3. Format: biochemical. The settings on record: c-di-GMP more than 50-fold above its dissociation constant.

T3 sequence (Q3J125 entry or part of it R580A, one chain of several): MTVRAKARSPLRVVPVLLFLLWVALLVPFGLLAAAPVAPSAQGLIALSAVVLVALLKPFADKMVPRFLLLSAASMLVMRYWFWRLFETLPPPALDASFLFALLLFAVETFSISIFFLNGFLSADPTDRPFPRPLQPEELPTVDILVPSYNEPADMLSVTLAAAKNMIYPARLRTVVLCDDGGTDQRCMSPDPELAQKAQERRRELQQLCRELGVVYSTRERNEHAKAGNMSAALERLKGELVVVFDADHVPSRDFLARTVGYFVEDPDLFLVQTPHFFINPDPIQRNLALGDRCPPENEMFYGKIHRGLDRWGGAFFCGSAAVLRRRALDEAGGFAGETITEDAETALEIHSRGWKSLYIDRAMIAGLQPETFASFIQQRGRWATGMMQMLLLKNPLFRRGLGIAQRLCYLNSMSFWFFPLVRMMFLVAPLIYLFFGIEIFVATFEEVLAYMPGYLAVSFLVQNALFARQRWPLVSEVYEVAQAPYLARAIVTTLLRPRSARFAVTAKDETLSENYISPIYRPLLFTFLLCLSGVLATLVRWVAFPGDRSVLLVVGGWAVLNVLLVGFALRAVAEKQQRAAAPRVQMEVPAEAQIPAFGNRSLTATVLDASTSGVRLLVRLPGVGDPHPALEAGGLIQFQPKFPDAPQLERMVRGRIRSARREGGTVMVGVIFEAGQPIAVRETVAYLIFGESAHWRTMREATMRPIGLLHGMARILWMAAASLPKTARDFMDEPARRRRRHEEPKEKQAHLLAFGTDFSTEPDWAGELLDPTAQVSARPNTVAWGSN

A word on the Kd: it is the free concentration of one partner at which half of the binding sites on the other are occupied at equilibrium, for simple one-to-one binding. Regarding `Nc1nc2c(ncn2[C@@H]2O[C@@H]3COP(=O)(O)O[C@H]4[C@@H](O)[C@H](n5cnc6c(=O)[nH]c(N)nc65)O[C@@H]4COP(=O)(O)O[C@H]3[C@H]2O)c(=O)[nH]1` [c-di-GMP, cyclic dimeric guanosine monophosphate], the “effect of c-di-GMP on BcsA's apparent affinity for UDP-Glc” value in experiment [1] is recorded as “does not alter BcsA's apparent affinity for UDP-Glc”. Further, the dissociation constant (Kd) in experiment [2] was 400 nM; on BcsA-Arg580Ala complex it was 1600 nM; in experiment [3], 1600 nM. Moreover, the “stoichiometry of c-di-GMP binding” value in experiment [3] (ITC, 1 mM LFCE14, 25° C.) is approximately 0.5. Further, the “stimulation of cellulose biosynthesis by c-di-GMP” value in experiment [4] was “no further stimulation”.
